Reference: patent US20160046618A1, “Cyclopropyl Fused Thiazin-2-Amine Compounds as Beta-Secretase Inhibitors and Methods of Use” (AMGEN INC., priority 2014, published 2016)

Assays:
[1] = test system: Aβ40 in conditioned medium of cells stably expressing Amyloid Precursor Protein (APP); experiment: In vitro BACE-1 cell-based assay (Aβ40 sandwich ELISA); settings: read-out: IC50 IP (μM) BACE1 cell
Summary of the method: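 Aβ40 in supernatants measured by time-resolved fluorescence sandwich ELISA, with pAb40 as capture and biotin-6E10 as detector antibody, each incubated at 4 °C.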

human recombinant BACE1 = human recombinant BACE1 (Homo sapiens (Human), UniProt P56817); experiment: In vitro enzymatic BACE1 FRET assay; format: biochemical; settings: read-out: IC50 IP (μM) BACE1 enzyme
Summary of the method: (§1)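 Fluorescence from cleavage of a quenched peptide spanning the BACE site (50 nM) was read at 488 nm excitation, 590 nm emission. Purified enzyme (Ni-NTA) and compound reacted for one hour before a Tris stop shifted pH to neutral.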

human recombinant BACE2 = human recombinant BACE2 (Homo sapiens (Human), UniProt Q9Y5Z0); experiment: In vitro enzymatic BACE2 FRET assay; format: biochemical; settings: read-out: IC50 IP (μM) BACE2 enzyme
Summary of the method: as §1

Recombinant Cat D = Recombinant Cat D (Homo sapiens (Human), UniProt P07339); experiment: In vitro enzymatic Cathepsin D (Cat D) FRET assay; format: biochemical; settings: read-out: IC50 IP (μM) CatD
Summary of the method: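 Assay pH is 3.5 (0.05 M citrate, 5 mM CHAPS, 10% DMSO final) with Cat D from CHO cells. A 20 nM quenched peptide substrate is cleaved over one hour; the reaction is ended with Tris and read by fluorescence (ex 500, em 580 nm).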

Recombinant Cat D, sequence (P07339 65-412): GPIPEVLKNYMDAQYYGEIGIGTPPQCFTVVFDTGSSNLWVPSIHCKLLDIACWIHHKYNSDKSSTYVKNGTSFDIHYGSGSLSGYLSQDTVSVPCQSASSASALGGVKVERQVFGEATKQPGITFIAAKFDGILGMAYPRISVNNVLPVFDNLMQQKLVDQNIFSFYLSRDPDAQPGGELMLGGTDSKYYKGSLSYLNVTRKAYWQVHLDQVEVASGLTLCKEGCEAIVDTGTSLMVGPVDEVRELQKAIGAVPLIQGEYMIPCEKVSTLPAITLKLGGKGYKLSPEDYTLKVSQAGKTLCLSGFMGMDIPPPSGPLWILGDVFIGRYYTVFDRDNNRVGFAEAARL
human recombinant BACE1, sequence (P56817 46-501): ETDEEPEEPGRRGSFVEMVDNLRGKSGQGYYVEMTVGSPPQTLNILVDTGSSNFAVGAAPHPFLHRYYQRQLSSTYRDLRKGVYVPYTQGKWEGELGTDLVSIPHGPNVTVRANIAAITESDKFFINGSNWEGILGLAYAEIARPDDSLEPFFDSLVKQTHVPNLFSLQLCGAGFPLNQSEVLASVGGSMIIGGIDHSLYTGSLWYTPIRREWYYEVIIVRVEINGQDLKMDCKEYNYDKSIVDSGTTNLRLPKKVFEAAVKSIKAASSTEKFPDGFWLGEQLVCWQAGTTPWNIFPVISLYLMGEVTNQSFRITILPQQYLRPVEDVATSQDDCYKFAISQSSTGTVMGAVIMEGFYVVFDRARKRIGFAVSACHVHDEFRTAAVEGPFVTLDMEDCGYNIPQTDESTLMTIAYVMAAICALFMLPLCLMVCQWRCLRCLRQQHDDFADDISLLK
human recombinant BACE2, sequence (Q9Y5Z0 63-518): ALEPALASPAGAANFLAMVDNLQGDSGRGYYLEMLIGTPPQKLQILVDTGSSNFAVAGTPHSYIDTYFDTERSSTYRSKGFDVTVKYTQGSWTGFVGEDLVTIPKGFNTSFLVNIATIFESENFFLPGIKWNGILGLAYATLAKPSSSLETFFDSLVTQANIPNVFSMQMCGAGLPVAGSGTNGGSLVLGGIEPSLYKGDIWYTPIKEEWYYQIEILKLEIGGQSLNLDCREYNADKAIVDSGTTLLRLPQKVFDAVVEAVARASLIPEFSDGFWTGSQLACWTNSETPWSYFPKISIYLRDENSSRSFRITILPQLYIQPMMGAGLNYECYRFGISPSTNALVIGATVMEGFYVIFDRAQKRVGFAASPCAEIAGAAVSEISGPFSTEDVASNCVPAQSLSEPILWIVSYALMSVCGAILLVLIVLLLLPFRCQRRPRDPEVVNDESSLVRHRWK

Row | IC50 [1] [µM] | IC50 (human recombinant BACE1) [µM] | IC50 (human recombinant BACE2) [µM] | IC50 (Recombinant Cat D) [µM] | SMILES
1 | 0.00126 | 0.000676 | 0.0207 | 297 | C[C@]1(c2cc(NC(=O)c3cnc(OCc4ncco4)cn3)cc(F)c2F)N=C(N)S[C@@]2(CF)C[C@H]21 [Example 811, N-(3-((1S,5S,6S)-3-amino-1-(fluoromethyl)-5-methyl-2-thia-4-azabicyclo[4.1.0]hept-3-en-5-yl)-4,5-difluorophenyl)-5-(1,3-oxazol-2-ylmethoxy)-2-pyrazinecarboxamide]
2 | 0.00428 | 0.00298 | < 0.00203 | 1170 | C[C@]1(c2cc(NC(=O)c3ccc(Cl)cn3)ccc2F)N=C(N)S[C@@]2(CF)C[C@H]21 [Example 821, N-(3-((1S,5S,6S)-3-amino-1-(fluoromethyl)-5-methyl-2-thia-4-azabicyclo[4.1.0]hept-3-en-5-yl)-4-fluorophenyl)-5-chloro-2-pyridinecarboxamide]
3 | 0.00111 | 0.00357 | 0.0542 | 526 | C[C@]1(c2cc(Nc3nccc4nc(OCc5ncco5)cnc34)ccc2F)N=C(N)S[C@@]2(CF)C[C@H]21 [Example 825, N-(3-((1S,5S,6S)-3-amino-1-(fluoromethyl)-5-methyl-2-thia-4-azabicyclo[4.1.0]hept-3-en-5-yl)-4-fluorophenyl)-2-(1,3-oxazol-2-ylmethoxy)pyrido[3,4-b]pyrazin-5-amine]
4 | 0.00331 | 0.00174 | 0.0778 | 395 | C[C@]1(c2cc(NC(=O)c3cnc(OCC(F)(F)F)cn3)ccc2F)N=C(N)S[C@@]2(CF)C[C@H]21 [Example 826, N-(3-((1S,5S,6S)-3-amino-1-(fluoromethyl)-5-methyl-2-thia-4-azabicyclo[4.1.0]hept-3-en-5-yl)-4-fluorophenyl)-5-(2,2,2-trifluoroethoxy)-2-pyrazinecarboxamide]
5 | 0.0019 | 0.000776 | 0.00801 | 354 | C#CCOc1cnc(C(=O)Nc2ccc(F)c([C@@]3(C)N=C(N)S[C@@]4(CF)C[C@H]43)c2)c(C)n1 [Example 829, N-(3-((1S,5S,6S)-3-amino-1-(fluoromethyl)-5-methyl-2-thia-4-azabicyclo[4.1.0]hept-3-en-5-yl)-4-fluorophenyl)-3-methyl-5-(2-propyn-1-yloxy)-2-pyrazinecarboxamide]
6 | 0.00221 | 0.000566 | 0.0101 | 121 | C#CCOc1cnc(C(=O)Nc2ccc(F)c([C@@]3(C)N=C(N)S[C@@]4(C(F)F)C[C@@H]34)c2)c(C)n1 [Example 830, N-(3-((1S,5S,6S)-3-amino-1-(difluoromethyl)-5-methyl-2-thia-4-azabicyclo[4.1.0]hept-3-en-5-yl)-4-fluorophenyl)-3-methyl-5-(2-propyn-1-yloxy)-2-pyrazinecarboxamide]
7 | 0.00213 | 0.00299 | 0.013 | 778 | C#CCOc1cnc(C(=O)Nc2ccc(F)c([C@@]3(C)N=C(N)S[C@@]4(COC)C[C@H]43)c2)c(C)n1 [Example 832, N-(3-((1S,5S,6S)-3-amino-1-(methoxymethyl)-5-methyl-2-thia-4-azabicyclo[4.1.0]hept-3-en-5-yl)-4-fluorophenyl)-3-methyl-5-(2-propyn-1-yloxy)-2-pyrazinecarboxamide]
8 | 0.00392 | 0.00305 | 0.0249 | > 400 | COC[C@]12C[C@H]1[C@@](C)(c1cc(NC(=O)c3ncc(OCc4ncco4)nc3C)ccc1F)N=C(N)S2 [Example 835, N-(3-((1S,5S,6S)-3-amino-1-(methoxymethyl)-5-methyl-2-thia-4-azabicyclo[4.1.0]hept-3-en-5-yl)-4-fluorophenyl)-3-methyl-5-(1,3-oxazol-2-ylmethoxy)-2-pyrazinecarboxamide]
9 | 0.00389 | 0.00209 | 0.0362 | > 400 | Cc1nc(OCc2ncco2)cnc1C(=O)Nc1ccc(F)c([C@@]2(C)N=C(N)S[C@@]3(C(F)F)C[C@@H]23)c1 [Example 836, N-(3-((1S,5S,6S)-3-amino-1-(difluoromethyl)-5-methyl-2-thia-4-azabicyclo[4.1.0]hept-3-en-5-yl)-4-fluorophenyl)-3-methyl-5-(1,3-oxazol-2-ylmethoxy)-2-pyrazinecarboxamide]
10 | 0.00325 | 0.00253 | 0.0259 | 1070 | Cc1nc(OCc2ncco2)cnc1C(=O)Nc1ccc(F)c([C@@]2(C)N=C(N)S[C@@]3(CF)C[C@H]32)c1 [Example 837, N-(3-((1S,5S,6S)-3-amino-1-(fluoromethyl)-5-methyl-2-thia-4-azabicyclo[4.1.0]hept-3-en-5-yl)-4-fluorophenyl)-3-methyl-5-(1,3-oxazol-2-ylmethoxy)-2-pyrazinecarboxamide]

Continued, compound first:

Row | SMILES | IC50 [1] [µM] | IC50 (human recombinant BACE1) [µM] | IC50 (human recombinant BACE2) [µM] | IC50 (Recombinant Cat D) [µM]
11 | C[C@]1(c2cc(NC(=O)c3cnc(OCC(F)(F)F)cn3)ccc2F)N=C(N)S[C@@]2(C(=O)NC3CC3)C[C@H]21 [Example 800, (1S,5S,6S)-3-amino-N-cyclopropyl-5-(2-fluoro-5-(((5-(2,2,2-trifluoroethoxy)-2-pyrazinyl)carbonyl)amino)phenyl)-5-methyl-2-thia-4-azabicyclo[4.1.0]hept-3-ene-1-carboxamide] | 0.00659 | 0.000711 | 0.0841 | 293
12 | COC[C@]12C[C@H]1[C@@](C)(c1cc(Nc3ncnc4cc(OCc5ncco5)cnc34)cc(F)c1F)N=C(N)S2 [Example 809, N-(3-((1S,5S,6S)-3-amino-1-(methoxymethyl)-5-methyl-2-thia-4-azabicyclo[4.1.0]hept-3-en-5-yl)-4,5-difluorophenyl)-7-(1,3-oxazol-2-ylmethoxy)pyrido[3,2-d]pyrimidin-4-amine] | 0.00181 | 0.000974 | 0.0358 | 123
13 | C#CCOc1cnc2c(Nc3ccc(F)c([C@@]4(C)N=C(N)S[C@@]5(C(F)F)C[C@@H]45)c3)nccc2n1 [Example 816, N-(3-((1S,5S,6S)-3-amino-1-(difluoromethyl)-5-methyl-2-thia-4-azabicyclo[4.1.0]hept-3-en-5-yl)-4-fluorophenyl)-2-(2-propyn-1-yloxy)pyrido[3,4-b]pyrazin-5-amine] | 0.00122 | 0.000244 | 0.0183 | 73.6
14 | C[C@]1(c2cc(Nc3nccc4nc(OCc5ncco5)cnc34)ccc2F)N=C(N)S[C@@]2(C(F)F)C[C@@H]12 [Example 817, N-(3-((1S,5S,6S)-3-amino-1-(difluoromethyl)-5-methyl-2-thia-4-azabicyclo[4.1.0]hept-3-en-5-yl)-4-fluorophenyl)-2-(1,3-oxazol-2-ylmethoxy)pyrido[3,4-b]pyrazin-5-amine] | 0.00171 | 0.000706 | 0.0319 | 124
15 | C[C@]1(c2cc(NC(=O)c3ccc(Cl)cn3)ccc2F)N=C(N)S[C@@]2(C(F)F)C[C@@H]12 [Example 818, N-(3-((1S,5S,6S)-3-amino-1-(difluoromethyl)-5-methyl-2-thia-4-azabicyclo[4.1.0]hept-3-en-5-yl)-4-fluorophenyl)-5-chloro-2-pyridinecarboxamide] | 0.00164 | 0.000587 | < 0.00203 | 152
16 | C#CCOc1cnc2c(Nc3ccc(F)c([C@@]4(C)N=C(N)S[C@@]5(C(F)F)C[C@@H]45)c3)ncnc2c1 [Example 819, N-(3-((1S,5S,6S)-3-amino-1-(difluoromethyl)-5-methyl-2-thia-4-azabicyclo[4.1.0]hept-3-en-5-yl)-4-fluorophenyl)-7-(2-propyn-1-yloxy)pyrido[3,2-d]pyrimidin-4-amine] | 0.00175 | 0.000821 | 0.0412 | 34.2
17 | C#CCOc1cnc(C(=O)Nc2ccc(F)c([C@@]3(C)N=C(N)S[C@@]4(C(F)F)C[C@@H]34)c2)cn1 [Example 820, N-(3-((1S,5S,6S)-3-amino-1-(difluoromethyl)-5-methyl-2-thia-4-azabicyclo[4.1.0]hept-3-en-5-yl)-4-fluorophenyl)-5-(2-propyn-1-yloxy)-2-pyrazinecarboxamide] | 0.000495 | 0.000319 | 0.0162 | 60.4
18 | C#CCOc1cnc2c(Nc3ccc(F)c([C@@]4(C)N=C(N)S[C@@]5(CF)C[C@H]54)c3)ncnc2c1 [Example 824, N-(3-((1S,5S,6S)-3-amino-1-(fluoromethyl)-5-methyl-2-thia-4-azabicyclo[4.1.0]hept-3-en-5-yl)-4-fluorophenyl)-7-(2-propyn-1-yloxy)pyrido[3,2-d]pyrimidin-4-amine] | 0.00128 | 0.00299 | 0.0842 | 1840
19 | COC[C@]12C[C@H]1[C@@](C)(c1cc(NC(=O)c3ccc(Cl)cn3)ccc1F)N=C(N)S2 [Example 833, N-(3-((1S,5S,6S)-3-amino-1-(methoxymethyl)-5-methyl-2-thia-4-azabicyclo[4.1.0]hept-3-en-5-yl)-4-fluorophenyl)-5-chloro-2-pyridinecarboxamide] | 0.0137 | 0.0041 | 0.0061 | > 400
